In paper PMC10865363, “Structural, Biochemical, and Computational Characterization of Sulfamides as Bimetallic Peptidase Inhibitors” (Journal of Chemical Information and Modeling, 2024) one finds IC50 data, which are given here for 3 molecules.

The target of assay [1] is T1, Prostate-specific membrane antigen (PSMA) (Homo sapiens, UniProt Q04609).
T1 construct: gene FOLH1; extracellular part of human PSMA; amino acids 44–750
As to the kind of experiment: radioenzymatic assay with 3H-NAAG, purified recombinant PSMA. It is filed as biochemical.

For assay [2], the target named is T1, Prostate-specific membrane antigen (PSMA). Kind of assay: X-ray crystal structure ([…] Å); IC50 from radioenzymatic 3H-NAAG assay with purified enzyme. Format: biochemical.

SMILES strings stand for the structures. Counter-ions that a name gives are not always drawn.

T1 sequence (Q04609 44-750): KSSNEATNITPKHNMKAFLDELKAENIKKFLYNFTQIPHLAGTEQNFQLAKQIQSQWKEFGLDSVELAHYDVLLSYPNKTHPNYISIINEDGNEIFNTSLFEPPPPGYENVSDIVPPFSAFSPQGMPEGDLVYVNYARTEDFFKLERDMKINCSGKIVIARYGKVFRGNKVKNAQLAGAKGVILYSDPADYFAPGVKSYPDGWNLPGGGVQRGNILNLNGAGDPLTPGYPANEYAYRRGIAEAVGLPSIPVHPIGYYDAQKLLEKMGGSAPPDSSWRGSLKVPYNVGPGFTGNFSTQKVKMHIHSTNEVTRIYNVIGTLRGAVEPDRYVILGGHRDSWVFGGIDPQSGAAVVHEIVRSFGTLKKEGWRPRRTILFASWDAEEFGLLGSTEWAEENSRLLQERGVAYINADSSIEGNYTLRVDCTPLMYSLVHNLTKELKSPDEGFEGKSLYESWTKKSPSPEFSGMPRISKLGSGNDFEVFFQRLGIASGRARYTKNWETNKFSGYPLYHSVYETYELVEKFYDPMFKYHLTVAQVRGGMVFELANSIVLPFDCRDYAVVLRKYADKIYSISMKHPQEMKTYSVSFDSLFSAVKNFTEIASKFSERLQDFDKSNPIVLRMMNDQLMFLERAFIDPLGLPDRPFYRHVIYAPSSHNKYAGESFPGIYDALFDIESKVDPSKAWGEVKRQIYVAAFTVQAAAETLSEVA

As a reminder, the IC50 is the point on the concentration scale where inhibition reaches its midpoint. Turning to `O=C(O)CC[C@H](NS(=O)(=O)N[C@@H](CC(=O)O)C(=O)O)C(=O)O` [compound 3, (S)-2-((N-((S)-1,2-Dicarboxyethyl)sulfamoyl)amino)pentanedioic Acid Tetrasodium Salt], in assay [1], the IC50 was 103 µM.
Still for that read-out and setting: for `O=C(O)CC[C@H](NS(=O)(=O)N[C@@H](CCC(=O)O)C(=O)O)C(=O)O` [compound 4, (2S,2′S)-2,2′-(Sulfonylbis(azanediyl))dipentanedioic Acid] the value was 165 µM.
For `NS(=O)(=O)N[C@@H](CCC(=O)O)C(=O)O` [compound 9, monosubstituted glutamyl sulfamide 9], in assay [2], inhibition was half-maximal at 1.2 µM (IC50).
